Reference: the supplement of paper PMC10307832

Assays:
Assay in all cases: relative viability (nuclei count vs DMSO), 5 days (fraction); higher = more cells survive
LCLC-97TM1 = test system: LCLC-97TM1
How it was run: (§1)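 One day after seeding in 1536-well plates, lung cancer cell lines were dosed by pin tool. Dosing was either single-drug or a fixed anchor-drug dose plus five library-drug doses (not always all listed) in √10 steps. After 5 days, nuclei were stained in one fix-and-stain step and counted on 4× images, and relative viability is the nuclei count of treated wells over that of vehicle wells, given as the median of duplicate plates.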

NCI-H1792 = test system: NCI-H1792
How it was run: as §1

NCI-H1650 = test system: NCI-H1650
How it was run: as §1

H3255 = test system: H3255
How it was run: as §1

NCI-H661 = test system: NCI-H661
How it was run: as §1

A-427 = test system: A-427
How it was run: as §1

NCI-H460 = test system: NCI-H460
How it was run: as §1

NCI-H1651 = test system: NCI-H1651
How it was run: as §1

NCI-H441 = test system: NCI-H441
How it was run: as §1

NCI-H2023 = test system: NCI-H2023
How it was run: as §1

LC-2-ad = test system: LC-2-ad
How it was run: as §1

NCI-H650 = test system: NCI-H650
How it was run: as §1

NCI-H520 = test system: NCI-H520
How it was run: as §1

201T = test system: 201T
How it was run: as §1

NCI-H1944 = test system: NCI-H1944
How it was run: as §1

PC-3 [JPC-3] = test system: PC-3 [JPC-3]
How it was run: as §1

BEN = test system: BEN
How it was run: as §1

NCI-H596 = test system: NCI-H596
How it was run: as §1

CAL-12T = test system: CAL-12T
How it was run: as §1

NCI-H2087 = test system: NCI-H2087
How it was run: as §1

NCI-H1915 = test system: NCI-H1915
How it was run: as §1

Q: What does the source list for `CC1(C)CCC(c2ccc(Cl)cc2)=C(CN2CCN(c3ccc(C(=O)NS(=O)(=O)c4ccc(N[C@H](CCN5CCOCC5)CSc5ccccc5)c(S(=O)(=O)C(F)(F)F)c4)cc3)CC2)C1` [Navitoclax] + Nc1nc2[nH]cc(CCc3ccc(C(=O)N[C@@H](CCC(=O)O)C(=O)O)cc3)c2c(=O)[nH]1 [Pemetrexed] (partner 0.2 µM)?
A: relative viability (LCLC-97TM1; first compound 0.005 µM): 0.182; relative viability (LCLC-97TM1; first compound 0.01581 µM): 0.191; relative viability (LCLC-97TM1; first compound 0.05 µM): 0.158; relative viability (LCLC-97TM1; first compound 0.1581 µM): 0.156; relative viability (LCLC-97TM1; first compound 0.5 µM): 0.204; relative viability (NCI-H1792; first compound 0.005 µM): 0.917; relative viability (NCI-H1792; first compound 0.01581 µM): 0.82; relative viability (NCI-H1792; first compound 0.1581 µM): 0.716; relative viability (NCI-H1792; first compound 0.5 µM): 0.738; relative viability (NCI-H1650; first compound 0.005 µM): 0.365; relative viability (NCI-H1650; first compound 0.01581 µM): 0.412; relative viability (NCI-H1650; first compound 0.05 µM): 0.298; relative viability (NCI-H1650; first compound 0.1581 µM): 0.347; relative viability (NCI-H1650; first compound 0.5 µM): 0.334; relative viability (H3255; first compound 0.005 µM): 0.664; relative viability (H3255; first compound 0.01581 µM): 0.648; relative viability (H3255; first compound 0.05 µM): 0.571; relative viability (H3255; first compound 0.1581 µM): 0.581; relative viability (H3255; first compound 0.5 µM): 0.545; relative viability (NCI-H661; first compound 0.005 µM): 0.936; relative viability (NCI-H661; first compound 0.01581 µM): 0.958; relative viability (NCI-H661; first compound 0.05 µM): 0.9; relative viability (NCI-H661; first compound 0.1581 µM): 0.883; relative viability (NCI-H661; first compound 0.5 µM): 0.876; relative viability (A-427; first compound 0.005 µM): 1.01; relative viability (A-427; first compound 0.01581 µM): 0.896; relative viability (A-427; first compound 0.05 µM): 0.968; relative viability (A-427; first compound 0.1581 µM): 1.14; relative viability (A-427; first compound 0.5 µM): 1.04; relative viability (NCI-H460; first compound 0.005 µM): 0.0632; relative viability (NCI-H460; first compound 0.01581 µM): 0.067; relative viability (NCI-H460; first compound 0.05 µM): 0.0532; relative viability (NCI-H460; first compound 0.1581 µM): 0.059; relative viability (NCI-H460; first compound 0.5 µM): 0.0583; relative viability (NCI-H1651; first compound 0.005 µM): 0.682; relative viability (NCI-H1651; first compound 0.01581 µM): 0.552; relative viability (NCI-H1651; first compound 0.05 µM): 0.503; relative viability (NCI-H1651; first compound 0.1581 µM): 0.633; relative viability (NCI-H1651; first compound 0.5 µM): 0.548; relative viability (NCI-H441; first compound 0.005 µM): 0.238; relative viability (NCI-H441; first compound 0.01581 µM): 0.24; relative viability (NCI-H441; first compound 0.05 µM): 0.258; relative viability (NCI-H441; first compound 0.1581 µM): 0.232; relative viability (NCI-H441; first compound 0.5 µM): 0.296; relative viability (NCI-H2023; first compound 0.005 µM): 0.229; relative viability (NCI-H2023; first compound 0.01581 µM): 0.236; relative viability (NCI-H2023; first compound 0.05 µM): 0.258; relative viability (NCI-H2023; first compound 0.1581 µM): 0.214; relative viability (NCI-H2023; first compound 0.5 µM): 0.201; relative viability (LC-2-ad; first compound 0.005 µM): 0.268; relative viability (LC-2-ad; first compound 0.01581 µM): 0.263; relative viability (LC-2-ad; first compound 0.05 µM): 0.284; relative viability (LC-2-ad; first compound 0.1581 µM): 0.295; relative viability (LC-2-ad; first compound 0.5 µM): 0.275; relative viability (NCI-H650; first compound 0.005 µM): 0.9; relative viability (NCI-H650; first compound 0.01581 µM): 1.05; relative viability (NCI-H650; first compound 0.05 µM): 0.908; relative viability (NCI-H650; first compound 0.1581 µM): 0.95; relative viability (NCI-H650; first compound 0.5 µM): 0.999; relative viability (NCI-H520; first compound 0.005 µM): 0.713; relative viability (NCI-H520; first compound 0.01581 µM): 0.743; relative viability (NCI-H520; first compound 0.05 µM): 0.699; relative viability (NCI-H520; first compound 0.1581 µM): 0.571; relative viability (NCI-H520; first compound 0.5 µM): 0.681; relative viability (201T; first compound 0.005 µM): 0.299; relative viability (201T; first compound 0.01581 µM): 0.31; relative viability (201T; first compound 0.05 µM): 0.34; relative viability (201T; first compound 0.1581 µM): 0.321; relative viability (201T; first compound 0.5 µM): 0.357; relative viability (NCI-H1944; first compound 0.005 µM): 0.611; relative viability (NCI-H1944; first compound 0.01581 µM): 0.623; relative viability (NCI-H1944; first compound 0.1581 µM): 0.597; relative viability (NCI-H1944; first compound 0.5 µM): 0.534; relative viability (PC-3 [JPC-3]; first compound 0.005 µM): 1.12; relative viability (PC-3 [JPC-3]; first compound 0.01581 µM): 1.26; relative viability (PC-3 [JPC-3]; first compound 0.05 µM): 0.974; relative viability (PC-3 [JPC-3]; first compound 0.1581 µM): 1.02; relative viability (PC-3 [JPC-3]; first compound 0.5 µM): 0.754; relative viability (BEN; first compound 0.005 µM): 0.781; relative viability (BEN; first compound 0.01581 µM): 0.841; relative viability (BEN; first compound 0.05 µM): 0.74; relative viability (BEN; first compound 0.1581 µM): 0.803; relative viability (BEN; first compound 0.5 µM): 0.418; relative viability (NCI-H596; first compound 0.005 µM): 0.418; relative viability (NCI-H596; first compound 0.01581 µM): 0.459; relative viability (NCI-H596; first compound 0.05 µM): 0.5; relative viability (NCI-H596; first compound 0.1581 µM): 0.439; relative viability (NCI-H596; first compound 0.5 µM): 0.39; relative viability (CAL-12T; first compound 0.005 µM): 1.23; relative viability (CAL-12T; first compound 0.01581 µM): 1.34; relative viability (CAL-12T; first compound 0.05 µM): 1.23; relative viability (CAL-12T; first compound 0.1581 µM): 1.23; relative viability (CAL-12T; first compound 0.5 µM): 1.25; relative viability (NCI-H2087; first compound 0.005 µM): 0.689; relative viability (NCI-H2087; first compound 0.01581 µM): 0.697; relative viability (NCI-H2087; first compound 0.1581 µM): 0.686; relative viability (NCI-H2087; first compound 0.5 µM): 0.675; relative viability (NCI-H1915; first compound 0.005 µM): 0.495; relative viability (NCI-H1915; first compound 0.01581 µM): 0.504; relative viability (NCI-H1915; first compound 0.05 µM): 0.571; relative viability (NCI-H1915; first compound 0.1581 µM): 0.439; relative viability (NCI-H1915; first compound 0.5 µM): 0.401
